# Data published in US8017727B2, “Conjugates of membrane translocating agents and pharmaceutically active agents” (Merrion Research III Limited, priority 1999, dated 2011).
# Key:
# [1] = test system: Caco-2 cell monolayers; experiment: Permeability of tritiated kappa peptide conjugates through differentiated Caco-2 cell monolayers; type: in vitro ADME, human; settings: n=5
# Protocol: Highest transport values were obtained in the first 30 min followed by a 2-4 fold decrease at 60 min. The significance of these findings is unclear. The data may be indicative of dual binding/uptake events occurring through i) a kappa receptor specific mechanism and ii) direct membrane interaction through lipid interaction of the membrane permeable peptide.
# [2] = 3H tissue distribution of kappa peptide conjugates, conscious rat model; type: in vivo, Wistar rats; settings: ID, 100 μCi, potency corrected
# Protocol: The tissue was weighed and a representative sample, (ca 0.1 g), was removed to a scintillation vial. The tissue was solubilzed with 1 ml of BTS-450 (an organic tissue solubliser). Ten ml of scintillation fluid was added and the radioactivity was measured. The radioactivity was expressed as dpm/initial weight of tissue.
# [3] = Systemic 3H bioavailability of kappa peptide conjugates, conscious rat model (plasma); type: in vivo, Wistar rats; settings: intraduodenal (ID), 100 μCi
# Protocol: The possible enhancing effects of ELAN094 and ELAN207 MTLPs (SEQ ID NOs 2 and 60) on intestinal absorption of the kappa peptide were examined in a conscious rat model.
# The study was non-randomised, parallel group design. Wistar rats within the 250-350 g weight range were used. All animals were fasted for a period of 16 h prior to study initiation. Water was available at all times.
# Intravenous injection of 10 μCi of ^3H-kappa peptide-Kaffiralin-1 (plain kappa peptide) (tail vein injection).
# Intraduodenal instillation of 100 μCi of ^3H-kappa peptide-Elan094 (Analysed). The Elan094 ligand contains a membrane translocating sequence.
# Intraduodenal instillation of 100 μCi of ^3H-kappa peptide-Elan207 (Analysed). The Elan207 ligand contains a membrane translocating sequence.
# Intraduodenal instillation of 100 μCi of ^3H-kappa peptide-Kaffiralin-1.
# The plasma (100-250 μl) was made up to 1 ml with BTS-450 (an organic tissue solubiliser) and incubated for 1 hour. Ten ml of Scintillation fluid was added and the radioactivity was measured.
# The study was a non-randomised, parallel group biostudy designed to evaluate the systemic bioavailability of tritium labelled kappa peptide conjugates after intra-duodenal instillation in the conscious rat model. Each rat only received one treatment and the plasma samples were analysed for tritium content. The calculation of AUClast, Amax, tmax, Volume of Distribution (V d) and Clearance was based on base line corrected data. The absolute bioavailability was calculated using potency corrected data.
# [4] = biological target: T1, kappa receptor (Rattus norvegicus, UniProt P34975); experiment: Competition for binding of a radiolabelled kappa peptide to rat brain homogenates; settings: IC50, Day 82, first of triplicates
# T1 construct: from tissue; host or cells: rat brain homogenate
# Protocol: The integrity of the opioid peptide was evaluated post conjugation to assess suitability for inclusion in further studies. Opioid activity was assessed in vitro using a competition assay (competition for binding of a radiolabelled kappa peptide to rat brain homogenates).
# [5] = Opioid peptide stability in SIF (pancreatin, pH 7.5, HPLC/LCMS); type: in vitro ADME
# Protocol: Pancreatin (Fisher Scientific) was dissolved at 1 mg/ml in 1× phosphate buffer solution. The pH of the solution was adjusted to 7.5 with 0.01 M NaOH and it was heated in a waterbath to 37° C. Two dry peptide samples were weighed out. One sample was dissolved in phosphate buffer solution at 1.0 mg/ml as a control. The second sample was dissolved in SIF at 1.0 mg/ml for stability analysis. HPLC Analysis Conditions RP-HPLC analysis with C-18 short column (Betasil column, 5 μm (50×3 mm) PN: 055-701-3) with the following gradient: […]
# Diode array detector on the system, 214 nm used for analysis
# Solution in SIF injected at 0, 1, 3, and 24 hours
# Analyzed control and 24 hour sample by LCMS.
# [6] = Stability of MTLPs in simulated intestinal fluid pH 6.8 with pancreatin (HPLC recovery)
# Protocol: MTLPs ZElan094 and ZElan207 (SEQ. ID NO: 2 and 60) were dissolved in water and mixed with simulated intestinal fluid pH 6.8 containing porcine derived pancreatin (SIF+Pancreatin) at 37° C. The mixtures were incubated for up to 60 minutes at 37° C., with aliquots taken at designated time points. The reaction was quenched with quenching solution after the relevant time points in order to halt the reaction between the SIF and ligand.
# Approximately 1 mg of ligand was dissolved in 1 ml of water. This standard stock solution of ligand was used to prepare the solutions containing Ligand+SIF+Pancreatin. 50 μL of ligand solution was mixed with volumes of SIF+Pancreatin in separate eppendorfs, as follows:
# At the appropriate time point the reaction between the ligand and SIF was stopped by pipetting 100 μL of the mixture into 500 μL of quenching solution (Acetonitrile:Water 30:70). 20 μL of the mixture was injected onto the HPLC system.
# Control samples of ligand in water and in quenching solution were prepared to check for recovery of ligand in the absence of SIF+Pancreatin.
# [7] = test system: Caco-2 monolayers; experiment: Transport of dipeptide 14C-gly-sar across Caco-2 monolayers; type: cell-based, human; design: key to % inhibition 14C-gly-sar transport: NS: no significant difference between experimental (+MTLP) and control cells (−MTLP) in the transport of radiolabeled drug; settings: flux measured over 2 h
# Protocol: The effect of the MTLPs ZElan094, ZElan178 and ZElan187 (SEQ ID NOS: 2, 7 and 16) and of the targeting peptide ZElan022 (U.S. patent application Ser. Nos. 09/079,819, 09/079,723 AND 09/079,678, AND PCT APPLICATION PCT/US98/10088, PUBLISHED AS WO 98/51325) on the transport of the dipeptide ^14C-gly-sar and of the reporter molecule ^3H-fMLP across Caco-2 monolayers was determined. The Caco-2 monolayers were grown on Transwell-Snapwells. Cell viability was determined by measuring TEER of the Caco-2 monolayers during each experiment. No significant drop in TEER was measured. Cell permeability was determined by measuring mannitol flux across the Caco-2 monolayers during each experiment. No increase in mannitol flux was measured in the presence of the MTLP ZElan094.
# The flux of the dipeptide ^14C-gly-sar and of the reporter molecule ^3H-fMLP across the Caco-2 monolayers in the absence and in the presence of the MTLPs ZElan094, ZElan178 and ZElan187 (SEQ ID NOS: 2, 7 and 16) and of the targeting peptide ZElan022 (U.S. patent application Ser. Nos. 09/079,819, 09/079,723 AND 09/079,678), AND PCT APPLICATION PCT/US98/10088, PUBLISHED AS WO 98/51325 was measured over 2 h, and reduction in the permeability coefficient was determined in the presence of cold substrates.
compound,measurement,setting,value
CC[C@@H](C)[C@@H](NC(=O)[C@@H](Cc1ccccc1)NC(=O)[C@@H](Cc1ccccc1)NC(=O)[C@H](CCCCN)NC(=O)[C@@H]1CCCN1C(=O)[C@H](C)NC(=O)[C@H](C)NC(=O)[C@H](CC(C)C)NC(=O)[C@H](CC(C)C)NC(=O)[C@@H](NC(=O)[C@@H]1CCCN1C(=O)[C@H](CC(C)C)NC(=O)[C@H](CC(C)C)NC(=O)[C@@H](NC(=O)[C@H](C)NC(=O)[C@H](C)NC(=O)[C@H](C)NC(=O)[C@H](CCCCN)NC(=O)[C@@H](N)CCCCN)C(C)C)C(C)C)C(=O)N[C@H](CCCNC(=N)N)C(N)=O [3H-Kappa peptide-Elan094],permeability compared to the kappa peptide control,[1],No significant increase
same,"Catheter, % of administered dose",[2],0.20 ± 0.10%
same,"GI Tissue, % of administered dose",[2],11.61 ± 11.27%
same,"GI Washing, % of administered dose",[2],9.70 ± 5.24%
same,"GI contents, % of administered dose",[2],23.57 ± 21.57%
same,"Liver, % of administered dose",[2],0.37 ± 0.06%
same,"Total GI (% recovery from GI tissue, GI contents & GI wash)",[2],44.89 ± 19.94%
same,"Kidney, % of administered dose",[2]; t=6 h,0.12 ± 0.07%
same,"Plasma, % of administered dose",[2]; t=6 h,0.42±0.08%
same,"Total Recovery, % of administered dose",[2]; t=6 h,46.00 ± 19.91%
same,fold increase in absolute 3H bioavailability versus kappa peptide without ligand,[3],~6 fold
same,3H AUClast,[3]; Elan207 = original group,260642.53±35010.58 dpm/ml·h
same,3H Amax (maximum radioactivity),[3]; Elan207 = original group,158512.67±18907.79 dpm/ml
same,fold increase in absolute 3H bioavailability versus kappa peptide without ligand,[3]; listed as Elan094 MTLP,approximately 5.8 fold
same,bioavailability,"[3]; rat, plasma, potency corrected, Elan207 = original group, read-out: Absolute 3H bioavailability",46.5 ± 6.24%
CC[C@@H](C)[C@@H](NC(=O)[C@@H](Cc1ccccc1)NC(=O)[C@H](N)Cc1ccccc1)C(=O)N[C@H](CCCNC(=N)N)C(N)=O [H-ffir-NH2],IC50,[4],4 nM
same,stability in SIF,[5]; over the 24 hour period,very stable
same,"remaining at 1 h, 1 mg/ml","[5]; simulated intestinal fluid (SIF) with pancreatin, pH 7.5, SIF, 37° C., 1 hr, read-out: % Compound",105%
same,"remaining at 24 h, 1 mg/ml","[5]; simulated intestinal fluid (SIF) with pancreatin, pH 7.5, SIF, 37° C., 24 hr, read-out: % Compound",101%
CC(C)C[C@@H](NC(=O)[C@@H](CC(C)C)NC(=O)[C@H](NC(=O)[C@H]1CCCN1C(=O)[C@@H](CC(C)C)NC(=O)[C@@H](CC(C)C)NC(=O)[C@H](NC(=O)[C@@H](C)NC(=O)[C@@H](C)NC(=O)[C@@H](C)NC(=O)[C@@H](CCCCN)NC(=O)[C@@H](CCCCN)NC(=O)[C@H](N)CCCCNS(=O)(=O)c1cccc2c(N(C)C)cccc12)C(C)C)C(C)C)C(=O)N[C@H](C)C(=O)N[C@H](C)C(=O)N1CCC[C@@H]1C(N)=O [ZElan207],recovery,"[6]; % Recovery, control without SIF: Pep + H2O (100 ul) + H2O, 60 min",101%
same,recovery,"[6]; % Recovery, control without SIF: Pep + H2O (100 ul) + quenching solution, 60 min",101%
same,recovery,"[6]; pH 6.8, % Recovery, Peptide + 100 uL SIF pH 6.8, 37 C, 5 min",96.6%
same,recovery,"[6]; pH 6.8, % Recovery, Peptide + 100 uL SIF pH 6.8, 37 C, 10 min",97.4%
same,recovery,"[6]; pH 6.8, % Recovery, Peptide + 100 uL SIF pH 6.8, 37 C, 30 min",87.8%
same,recovery,"[6]; pH 6.8, % Recovery, Peptide + 100 uL SIF pH 6.8, 37 C, 60 min",97.7%
same,recovery,"[6]; pH 6.8, % Recovery, Peptide + 200 uL SIF pH 6.8, 37 C, 5 min",99%
same,recovery,"[6]; pH 6.8, % Recovery, Peptide + 200 uL SIF pH 6.8, 37 C, 10 min",96.3%
same,recovery,"[6]; pH 6.8, % Recovery, Peptide + 200 uL SIF pH 6.8, 37 C, 30 min",92.8%
same,recovery,"[6]; pH 6.8, % Recovery, Peptide + 200 uL SIF pH 6.8, 37 C, 60 min",96.5%
H-K(ε-dansyl)KKAAVLLPVLLA-NH2 ({K(ε-dansyl)}-KKAAVLLPVLLA-NH2) [ZElan187],% inhibition 14C-gly-sar transport,[7],NS
same,inhibition of 14C-gly-sar transport,[7],did not inhibit transport
"H-K(ε-dansyl)KKCAAVLLPVLLAC-NH2 ({K(ε-dansyl)}-KKCAAVLLPVLLAC-NH2; not fully specified; printed as H-K(ε-dansyl)KKCAAVLLPVLLAC-NH2; also: cyclic internal, bridge kind and places not given here) [ZElan178]",% inhibition 14C-gly-sar transport,[7],NS
same,inhibition of 14C-gly-sar transport,[7],did not inhibit transport
